Test [1] deals with T. cruzi Arequipa strain amastigotes. Briefly: Screening against intracellular amastigotes in Vero cells, Arequipa strain (Giemsa counting). It is filed as cell-based, Trypanosoma cruzi. How it is done:
(§1) TINF/CH/1956/Tulahuen, DTU VI [26]—were grown at 28 °C in Gibco® RPMI 1640 Medium supplemented as previously reported, and used for in vitro screening. Trypanocidal activity against amastigotes was tested as previously reported. In brief, bloodstream trypomastigotes (BTs), obtained by cardiac puncture from infected BALB/c mice, were used to infect 1 × 10^4 Vero cells·well^−1 in 24-well plates with rounded coverslips at a multiplicity of infection (MOI) ratio of 10:1. After 24 h of infection, non-internalized trypomastigotes were washed and the infected cells were treated by adding the compounds in serial dilutions from 50 to 0.5 µM in […] for 72 h. BZN and untreated growth controls were also included in triplicate. Later, the number of amastigotes and infected cells were determined in Giemsa stained preparations by analysing 500 host cells randomly distributed in microscopic fields. The trypanocidal activity was expressed as the IC50 using GraphPad Prism 6 software (version 6.07).

Test [2] has as its system T. cruzi SN3 strain epimastigotes. Briefly: Screening against extracellular epimastigotes, SN3 strain (resazurin). It is filed as cell-based, Trypanosoma cruzi. The protocol:
(§2) Three different T. cruzi […] strains—MHOM/Pe/2011/Arequipa, discrete typing unit (DTU) V [26]; IRHOD/CO/2008/SN3, DTU I [27]; TINF/CH/1956/Tulahuen, DTU VI [26]—were grown at 28 °C in Gibco® RPMI 1640 Medium supplemented as previously reported, and used for in vitro screening.
(§3) Trypanocidal activity against epimastigotes was tested as previously reported. In brief, 5 × 10^5 mL^−1 epimastigotes culture medium were treated by adding the compounds in serial dilutions from 100 to 0.2 µM in 96-well plates (200 µL·well^−1) for 48 h. BZN and untreated growth control were also included in triplicate. Later, 20 μL of resazurin sodium salt (Sigma-Aldrich, St. Louis, MO, USA) was added, and the plates were incubated for another 24 h. Finally, the absorbance of the wells was measured at 570/600 nm and related to the control. The trypanocidal activity was expressed as the IC50 (inhibitory concentration 50) value using GraphPad Prism 6 software.

The subject of test [3] is T. cruzi SN3 strain amastigotes. Briefly: Screening against intracellular amastigotes in Vero cells, SN3 strain (Giemsa counting). It is filed as cell-based, Trypanosoma cruzi. The protocol:
as §1

Test [4] relates to T. cruzi SN3 strain trypomastigotes. Kind of test: Screening against bloodstream trypomastigotes, SN3 strain (resazurin). In kind it is cell-based, Trypanosoma cruzi.
The subject of test [5] is T. cruzi Tulahuen strain epimastigotes. Briefly: Screening against extracellular epimastigotes, Tulahuen strain (resazurin). It is filed as cell-based, Trypanosoma cruzi. The protocol:
as §2, §3
A general note: The colour change of resazurin is a common sign of viable cells or microbes.

Test [6] concerns T. cruzi Tulahuen strain amastigotes. Kind of test: Screening against intracellular amastigotes in Vero cells, Tulahuen strain (Giemsa counting). It is filed as cell-based, Trypanosoma cruzi. How it is done:
as §1

The subject of test [7] is T. cruzi Tulahuen strain trypomastigotes. Briefly: Screening against bloodstream trypomastigotes, Tulahuen strain (resazurin). It is filed as cell-based, Trypanosoma cruzi.
Test [8] concerns Trypanosoma cruzi epimastigotes. Kind of test: Excreted metabolites by 1H NMR. It is filed as cell-based. The settings on record: epimastigotes at IC25 concentration, 72 h; succinate and pyruvate most increased. The protocol: 5 × 10^5 mL^−1 epimastigotes culture medium were treated by adding the compounds at IC25 concentrations in 25 cm^2 cell culture flasks for 72 h. Untreated controls were also included in triplicate. Cultures were then centrifuged and filtered, and the metabolites of the supernatants were measured by ^1H NMR (VARIAN DIRECT DRIVE 500 MHz […]) with AutoX probe, D2O as solvent and 2,2-dimethyl-2-silapentane-5-sulphonate as the reference signal. Analyses were conducted as previously reported.

[9] abbreviates: IC50 Vero cells/IC50 amastigotes.
Setting [10] is: Trypanosoma cruzi, amastigotes in Vero cells, 72 h, mean of three ± SD.
Where [11] appears, read: IC50 Vero cells/IC50 epimastigotes.
Where [12] appears, read: IC50 Vero cells/IC50 trypomastigotes.

One may read the IC50 as the concentration that inhibits the measured activity by half.

For `c1cc2nc(c1)CNCCN(CCNCc1ccc3ccc4ccc(CNCCN5CCNCc6cccc(n6)CNCC5)nc4c3n1)CCNC2` [Compound 15], the “Selectivity Index T. cruzi Arequipa Strain A” value in test [1] (setting [9]) was 262.0. In addition, the half-inhibitory concentration (IC50) in test [1] (setting [10]) turned out to be 2.5 ± 0.3 µM; in test [2] (Trypanosoma cruzi, epimastigotes, 48 h treatment + 24 h resazurin, mean of three ± SD, read-out: Activity IC50 T. cruzi SN3 Strain E), 16.9 ± 1.4 µM; in test [3] (setting [10]), 11.3 ± 0.9 µM; in test [4] (Trypanosoma cruzi, trypomastigotes, 24 h + 4 h resazurin, mean of three ± SD) it was 10.6 ± 0.9 µM; in test [5] (Trypanosoma cruzi, TULAHUEN, epimastigotes, 48 h treatment + 24 h resazurin, mean of three ± SD, read-out: Activity IC50 T. cruzi Tulahuen Strain E), 11.4 ± 1.1 µM; in test [6] (Trypanosoma cruzi, TULAHUEN, amastigotes in Vero cells, 72 h, mean of three ± SD) it was 6.8 ± 0.7 µM. Also, the IC50 in test [7] (Trypanosoma cruzi, TULAHUEN, trypomastigotes, 24 h + 4 h resazurin, mean of three ± SD) amounted to 7.8 ± 0.7 µM. Moreover, the “Selectivity Index T. cruzi SN3 Strain E” value in test [2] (setting [11]) worked out at 38.7. Besides, in test [3] (setting [9]), the “Selectivity Index T. cruzi SN3 Strain A” value is 58.0. Further, the “Selectivity Index T. cruzi SN3 Strain T” value in test [4] (setting [12]) was 62.0. Moreover, the “Selectivity Index T. cruzi Tulahuen Strain E” value in test [5] (setting [11]) came to 57.4. For the same molecule, the “Selectivity Index T. cruzi Tulahuen Strain A” value in test [6] (setting [9]) was determined as 96.3. Also, the “Selectivity Index T. cruzi Tulahuen Strain T” value in test [7] (setting [12]) was found to be 83.6. Moreover, the “excretion of catabolites compared with untreated parasites” value in test [8] is listed as “notably increased”.

For the origin of these results see publication PMC9863987, “Identification of Aryl Polyamines Derivatives as Anti-Trypanosoma cruzi Agents Targeting Iron Superoxide Dismutase” (Pharmaceutics, 2022).
